Assay results as given in US10154988B2, “Methods and compositions for treating schizophrenia” (The Johns Hopkins University, priority 2012, dated 2018).
“Also recorded” adds a separate entry of the source. Like-named read-outs stand apart in the source and are kept apart here.

Tests used:
[1] = system: aMCI subjects; assay: explicit 3-alternative forced choice task (lure-based memory performance); type: in vivo, human
[2] = levetiracetam blood plasma levels in aged-impaired rats; type: in vivo; conditions: rat
Experimental: Rats: Blood is drawn from aged-impaired rats by cardiac puncture during perfusion after a 28-day levetiracetam treatment period and is sent for analysis of levetiracetam plasma levels by MedTox Laboratories in St. Paul, Minn.
The levetiracetam blood levels in the aged-impaired rats treated with daily levetiracetam doses of 10 mg/kg and 60 mg/kg can be use to estimate the levetiracetam blood level of its daily dose of 20 mg/kg. This extrapolation gives an estimated levetiracetam blood level of 7.6 mcg/ml for the 20 mg/kg daily dose.

[3] = system: DG/CA3 region of aMCI subjects; assay: fMRI activity in DG/CA3 during lure stimuli correctly identified as similar; type: in vivo, human
Experimental: A within-subjects trial of 8 weeks duration, involving 17 amnestic MCI (aMCI) subjects and 17 age-matched controls with a low dose treatment of levetiracetam is conducted. […] Cognitive testing and fMRI imaging data are obtained from the subjects after each two week period of drug/placebo treatment. […] The […]

[4] = system: reelin in Entorhinal Cortex (EC2); assay: reelin mRNA in situ hybridization in entorhinal cortex after 4-week levetiracetam; type: in vivo, rat; conditions: 10 mg/kg/day, osmotic minipumps, 28 days; vs AI-VEH t(13)=2.386, p=0.033
Experimental: Under isoflurane anesthesia, memory-impaired aged rats are implanted subcutaneously in the intrascapular region with osmotic mini-pumps (ALZET,
Durect Corporation, Cupertino, Calif.) with levetiracetam (10 mg/kg/day) or saline vehicle for four weeks prior to perfusion. Young rats, which served as controls, receive either saline vehicle in mini-pumps or no implantation.
At the end of the 4-week treatment period, rats are anesthetized with isoflurane and perfused transcardiacally with 0.1 M phosphate buffer saline, followed by 4% paraformaldehyde in phosphate buffer. Brains are removed and post-fixed in paraformaldehyde overnight. The brains are then moved into 4% paraformaldehyde in phosphate buffer containing 16% sucrose. […]
Probe templates are synthesized as described in Haberman et al. (2008). […] The final probe is resuspended in RNase-free water and the specific activity is determined by scintillation counter.
In situ hybridization is carried out as described by Haberman et al., (2008). […] Slides are dried overnight, exposed to a phosphoimager screen, and quantified by using ImageQuant (GE Healthcare). Digital images are acquired of entorhinal cortical sections from the same levels for all animals and the subregion of interest is outlined and quantified. […]

CC[C@@H](C(N)=O)N1CCCC1=O [levetiracetam, (2S)-2-(2-oxopyrrolidin-1-yl) butanamide]
performance in the explicit 3-alternative forced choice task ([1]; 62.5 mg BID for two weeks vs placebo, p=0.041): further improved performance in cognitive tests; also recorded: improves significantly | performance in the explicit 3-alternative forced choice task ([1]; 125 mg twice a day for two weeks vs placebo, p=0.039): improves significantly | performance in the explicit 3-alternative forced choice task ([1]; 250 mg BID for two weeks vs placebo, p=0.2396): does not significantly improve | concentration at 28 days ([2]; 20 mg/kg daily dose, extrapolated from 10 and 60 mg/kg, read-out: estimated levetiracetam blood level): 7600 ng/mL | concentration at 28 days ([2]; other: osmotic minipumps, 10 mg/kg/day, 28 days, SEM±0.255, read-out: mean levetiracetam blood plasma level): 3800 ng/mL | concentration at 28 days ([2]; other: osmotic minipumps, 20 mg/kg daily dose, extrapolated from 10 and 60 mg/kg, read-out: estimated levetiracetam blood level): 7600 ng/mL | DG/CA3 hyperactivity (fMRI mean activity) ([3]; 125 mg twice a day for two weeks vs placebo, p=0.037): reduces DG/CA3 hyper-activity | DG/CA3 hyperactivity (fMRI mean activity) ([3]; 250 mg BID for two weeks vs placebo, N=17): does not significantly reduce; also recorded: No such improvement is observed | levels of reelin (mRNA expression) in Entorhinal Cortex (EC2) [4]: restores the levels of reelin; also recorded: significantly increases the expression of reelin; also recorded: restores reelin in Entorhinal Cortex (EC2)
